{"source": "patent US20240300881A1", "about": "“PROCESS FOR PREPARATION OF LITHIUM L-THREONATE AND USE THEREOF” (XIXIOXOME BIOTHERAPEUTICS, priority 2023, published 2024)", "key": {"schizoaffective disorder": {"test_system": "schizoaffective disorder", "details": "cited from earlier work"}, "[1]": {"assay": "precipitation of lithium hydroxide from solution at different pH", "format": "physicochemical", "source_text": "L-threonic acid was selected as the ligand for lithium ion, because L-threonic acid can accelerate the absorption of the ion."}, "[2]": {"details": "stability in high thermal condition"}, "AAD": {"test_system": "AAD", "details": "low-dose; cited from earlier work"}}, "data": [{"smiles": "NC(=O)N1c2ccccc2C=Cc2ccccc21", "note": "[carbamazepine]", "values": [{"measurement": "prophylactic efficacy in maintenance treatment", "setting": "schizoaffective disorder", "value": "equipotent alternatives"}]}, {"smiles": "O=C([O-])[C@H](O)[C@@H](O)CO.[Li+]", "note": "[lithium L-threonate]", "values": [{"measurement": "precipitate of lithium hydroxide", "setting": "[1]; basic condition", "value": "no precipitate of lithium hydroxide"}, {"measurement": "precipitate of lithium hydroxide", "setting": "[1]; small intestine (pH˜7)", "value": "no precipitate of lithium hydroxide"}, {"measurement": "dissolution in alcohol and ether", "setting": "alcohol and ether", "value": "no dissolution in alcohol and ether"}, {"measurement": "dissolution in water", "setting": "water", "value": "dissolution in water"}, {"measurement": "temperature of decomposition", "setting": "[2]", "value": "> 300", "unit": "°C"}]}, {"smiles": "O=C([O-])[O-].[Li+].[Li+]", "note": "[lithium carbonate]", "values": [{"measurement": "efficacy in treating agitation", "setting": "AAD", "value": "not efficacious"}, {"measurement": "global clinical improvement", "setting": "AAD", "value": "associated with global clinical improvement"}]}]}
